In brackets after ≈: the same amount, converted by molar mass.

Series [1] has as its system SARS-CoV. The conditions noted are these: cited from earlier work.
Series [2] has as its system VERO E6 cell line. As to conditions: Tables 1, 2 and FIGS. 3A, 3B.
Series [3] relates to SARS-CoV-2 (COVID-19 disease). The series can be described thus: Treatment of SARS-CoV-2 positive patients with oral Nystatin tablets.
Series [4] relates to SARS-CoV-2 early Wuhan strain (CMC-1). The series can be described thus: microbe, parasite or virus in culture. The format is cell-based.

As usually defined, the IC50 is the concentration needed to halve the response being measured. High values mean lower potency, low ones higher potency. For the compound `C[C@@H]1[C@H](O)[C@@H](C)/C=C/C=C/CC/C=C/C=C/C=C/C=C/[C@H](OC2O[C@@H](C)[C@H](O)[C@@H](N)[C@H]2O)C[C@@H]2OC(O)(C[C@@H](O)[C@H](O)CC[C@@H](O)C[C@@H](O)C[C@@H](O)CC(=O)O[C@H]1C)C[C@H](O)[C@H]2C(=O)O` (some centres unmarked) [Nystatin, nystatin], the “effectiveness against SARS-CoV in vivo” value in series [1] is on record as “not proved to be effective”. In addition, the “toxicity of nystatin itself to the cultured cells” value in series [2] is on record as “toxic to the cultured cells”. Further, the “course of complaints under treatment” value was “complaints steadily decreased and disappeared after 10 days” in series [3] (Patient 1, 3×2 Nystatin tablets (500,000 IU) per day for 10 days); “free of complaints” in series [3] (Patient 2, 3×2 Nystatin tablets (500,000 IU) per day for 15 days); “free of complaints” in series [3] (Patient 3, 3×2 Nystatin tablets (500,000 IU) per day for 15 days). The body temperature in series [3] (Patient 4, 9 Apr. 2021 (day 9), one day after start of Nystatin, before 39-39.8° C.) was 37.5 °C; in series [3] (Patient 4, 10 Apr. 2021 (day 10)) it was 36.9 °C; in series [3] (Patient 4, 11 Apr. 2021 (day 11)) it was 36.3 °C. For the same compound, the state after treatment entry in series [3] (Patient 4, Nystatin from 8 Apr. 2021, 3×2 tablets daily, state on 14 Apr. 2021) is recorded as ““post-covid” asymptomatic state”. In addition, the “microscopic image of tissue culture at the end of the incubation period” value in series [4] (CMC-1 virus treated with 60 μg/ml nystatin, FIG. 4C) is “both cells with lysed and intact morphology can be seen”. This compound had an IC50 in series [4] (Severe acute respiratory syndrome coronavirus 2, Vero C1008) of 60 µg/mL (≈ 64.8 µM).

Values taken from patent publication US20240207297A1 (priority 2021, published 2024).
